PubChem BioAssay (NCI)
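GI50 = concentration required for 50% inhibition of growth. TGI denotes the concentration required for complete inhibition of growth.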

Assays:
Experiment in all cases: NCI-60 cell line screen, 384-well format
786-0 renal = tested on: 786-0 renal
A498 renal = tested on: A498 renal
A549 NSCLC = tested on: A549 NSCLC
ACHN renal = tested on: ACHN renal
BT-549 breast = tested on: BT-549 breast
CAKI-1 renal = tested on: CAKI-1 renal
CCRF-CEM leukemia = tested on: CCRF-CEM leukemia
COLO 205 colon = tested on: COLO 205 colon
DU-145 prostate = tested on: DU-145 prostate
EKVX NSCLC = tested on: EKVX NSCLC
HCC-2998 colon = tested on: HCC-2998 colon
HCT-116 colon = tested on: HCT-116 colon
HCT-15 colon = tested on: HCT-15 colon
HL-60(TB) leukemia = tested on: HL-60(TB) leukemia
HOP-62 NSCLC = tested on: HOP-62 NSCLC
HOP-92 NSCLC = tested on: HOP-92 NSCLC
HS 578T breast = tested on: HS 578T breast
HT29 colon = tested on: HT29 colon
IGROV1 ovarian = tested on: IGROV1 ovarian
K-562 leukemia = tested on: K-562 leukemia
KM12 colon = tested on: KM12 colon
LOX IMVI melanoma = tested on: LOX IMVI melanoma
M14 melanoma = tested on: M14 melanoma
MALME-3M melanoma = tested on: MALME-3M melanoma
MCF7 breast = tested on: MCF7 breast
MDA-MB-231 breast = tested on: MDA-MB-231 breast
MDA-MB-435 melanoma = tested on: MDA-MB-435 melanoma
MDA-MB-468 breast = tested on: MDA-MB-468 breast
MOLT-4 leukemia = tested on: MOLT-4 leukemia
NCI-H226 lung = tested on: NCI-H226 lung
NCI-H23 lung = tested on: NCI-H23 lung
NCI-H322M lung = tested on: NCI-H322M lung
NCI-H460 NSCLC = tested on: NCI-H460 NSCLC
NCI-H522 lung = tested on: NCI-H522 lung
NCI/ADR-RES ovarian = tested on: NCI/ADR-RES ovarian
OVCAR-3 ovarian = tested on: OVCAR-3 ovarian
OVCAR-4 ovarian = tested on: OVCAR-4 ovarian
OVCAR-5 ovarian = tested on: OVCAR-5 ovarian
OVCAR-8 ovarian = tested on: OVCAR-8 ovarian
PC-3 prostate = tested on: PC-3 prostate
RPMI-8226 leukemia = tested on: RPMI-8226 leukemia
RXF 393 renal = tested on: RXF 393 renal
SF-268 CNS = tested on: SF-268 CNS
SF-295 CNS = tested on: SF-295 CNS
SF-539 CNS = tested on: SF-539 CNS
SK-MEL-2 melanoma = tested on: SK-MEL-2 melanoma
SK-MEL-28 melanoma = tested on: SK-MEL-28 melanoma
SK-MEL-5 melanoma = tested on: SK-MEL-5 melanoma
SK-OV-3 ovarian = tested on: SK-OV-3 ovarian
SN12C renal = tested on: SN12C renal
SNB-19 CNS = tested on: SNB-19 CNS
SNB-75 CNS = tested on: SNB-75 CNS
SW-620 colon = tested on: SW-620 colon
T-47D breast = tested on: T-47D breast
TK-10 renal = tested on: TK-10 renal
U251 glioblastoma = tested on: U251 glioblastoma
UACC-257 melanoma = tested on: UACC-257 melanoma
UACC-62 melanoma = tested on: UACC-62 melanoma
UO-31 renal = tested on: UO-31 renal

CNC(=O)c1ccccc1Nc1nc(Nc2ccc(N3CCOCC3)cc2OC)ncc1Cl
GI50 ([…]-0 renal): 0.997 µM | TGI (786-0 renal): 4.99 µM | GI50 (A498 renal): 0.519 µM | TGI (A498 renal): 9.57 µM | GI50 (A549 NSCLC): 0.398 µM | TGI (A549 NSCLC): 2.12 µM | GI50 (ACHN renal): 1.11 µM | TGI (ACHN renal): 9.28 µM | GI50 (BT-549 breast): 1.26 µM | TGI (BT-549 breast): 10.4 µM | GI50 (CAKI-1 renal): 0.664 µM | TGI (CAKI-1 renal): 2.44 µM | GI50 (CCRF-CEM leukemia): 0.199 µM | TGI (CCRF-CEM leukemia): 0.376 µM | GI50 (COLO 205 colon): 0.138 µM | TGI (COLO 205 colon): 0.289 µM | GI50 (DU-145 prostate): 0.485 µM | TGI (DU-145 prostate): 3.47 µM | GI50 (EKVX NSCLC): 0.158 µM | TGI (EKVX NSCLC): 1.32 µM | GI50 (HCC-2998 colon): 0.711 µM | TGI (HCC-2998 colon): 3.36 µM | GI50 (HCT-116 colon): 0.562 µM | TGI (HCT-116 colon): 2.85 µM | GI50 (HCT-15 colon): 0.464 µM | TGI (HCT-15 colon): 10.9 µM | GI50 (HL-60(TB) leukemia): 0.107 µM | TGI (HL-60(TB) leukemia): 0.264 µM | GI50 (HOP-62 NSCLC): 0.751 µM | TGI (HOP-62 NSCLC): 8.77 µM | GI50 (HOP-92 NSCLC): 0.472 µM | TGI (HOP-92 NSCLC): 2.23 µM | GI50 (HS 578T breast): 0.977 µM | TGI (HS 578T breast): 3.47 µM | GI50 (HT29 colon): 0.2 µM | TGI (HT29 colon): 1.66 µM | GI50 (IGROV1 ovarian): 0.38 µM | TGI (IGROV1 ovarian): 1.91 µM | GI50 (K-562 leukemia): 4.53 µM | TGI (K-562 leukemia): 18.1 µM | GI50 (KM12 colon): 0.261 µM | TGI (KM12 colon): 0.899 µM | GI50 (LOX IMVI melanoma): 0.754 µM | TGI (LOX IMVI melanoma): 2.5 µM | GI50 (M14 melanoma): 0.359 µM | TGI (M14 melanoma): 5.88 µM | GI50 (MALME-3M melanoma): 0.287 µM | TGI (MALME-3M melanoma): 4.72 µM | GI50 (MCF7 breast): 0.0937 µM | TGI (MCF7 breast): 14.6 µM | GI50 (MDA-MB-231 breast): 0.715 µM | TGI (MDA-MB-231 breast): > 100 µM | GI50 (MDA-MB-435 melanoma): 0.441 µM | TGI (MDA-MB-435 melanoma): 6.63 µM | GI50 (MDA-MB-468 breast): 0.655 µM | TGI (MDA-MB-468 breast): 2.2 µM | GI50 (MOLT-4 leukemia): 0.2 µM | TGI (MOLT-4 leukemia): 0.38 µM | GI50 (NCI-H226 lung): 0.636 µM | TGI (NCI-H226 lung): 5.35 µM | GI50 (NCI-H23 lung): 0.431 µM | TGI (NCI-H23 lung): 2.63 µM | GI50 (NCI-H322M lung): 1.32 µM | TGI (NCI-H322M lung): 3.98 µM | GI50 (NCI-H460 NSCLC): 0.267 µM | TGI (NCI-H460 NSCLC): 1.16 µM | GI50 (NCI-H522 lung): 0.407 µM | TGI (NCI-H522 lung): 1.72 µM | GI50 (NCI/ADR-RES ovarian): 0.499 µM | TGI (NCI/ADR-RES ovarian): 2.72 µM | GI50 (OVCAR-3 ovarian): 0.716 µM | TGI (OVCAR-3 ovarian): 6.28 µM | GI50 (OVCAR-4 ovarian): 0.547 µM | TGI (OVCAR-4 ovarian): 18.7 µM | GI50 (OVCAR-5 ovarian): 0.597 µM | TGI (OVCAR-5 ovarian): 5.66 µM | GI50 (OVCAR-8 ovarian): 0.846 µM | TGI (OVCAR-8 ovarian): 5.78 µM | GI50 (PC-3 prostate): 1.87 µM | TGI (PC-3 prostate): 13.5 µM | GI50 (RPMI-8226 leukemia): 0.236 µM | TGI (RPMI-8226 leukemia): 0.826 µM | GI50 (RXF 393 renal): 0.467 µM | TGI (RXF 393 renal): 2.31 µM | GI50 (SF-268 CNS): 1.62 µM | TGI (SF-268 CNS): 14.3 µM | GI50 (SF-295 CNS): 0.511 µM | TGI (SF-295 CNS): 7.44 µM | GI50 (SF-539 CNS): 1.39 µM | TGI (SF-539 CNS): 7.13 µM | GI50 (SK-MEL-2 melanoma): 0.333 µM | TGI (SK-MEL-2 melanoma): 1.67 µM | GI50 (SK-MEL-28 melanoma): 1.34 µM | TGI (SK-MEL-28 melanoma): 13.4 µM | GI50 (SK-MEL-5 melanoma): 0.766 µM | TGI (SK-MEL-5 melanoma): 10.7 µM | GI50 (SK-OV-3 ovarian): 0.741 µM | TGI (SK-OV-3 ovarian): 4.8 µM | GI50 (SN12C renal): 1.38 µM | TGI (SN12C renal): 6.86 µM | GI50 (SNB-19 CNS): 2.69 µM | TGI (SNB-19 CNS): 19.6 µM | GI50 (SNB-75 CNS): 1.16 µM | TGI (SNB-75 CNS): 4.18 µM | GI50 (SW-620 colon): 0.4 µM | TGI (SW-620 colon): 2.44 µM | GI50 (T-47D breast): 1.71 µM | TGI (T-47D breast): 8.71 µM | GI50 (TK-10 renal): 0.45 µM | TGI (TK-10 renal): 2.19 µM | GI50 (U251 glioblastoma): 2.35 µM | TGI (U251 glioblastoma): 13.2 µM | GI50 (UACC-257 melanoma): 2.62 µM | TGI (UACC-257 melanoma): 22.2 µM | GI50 (UACC-62 melanoma): 0.487 µM | TGI (UACC-62 melanoma): 2.91 µM | GI50 (UO-31 renal): 0.718 µM | TGI (UO-31 renal): 5.32 µM
